Laboratory results from patent publication US12668594B2, “TYK2 inhibitors and uses thereof” (Sudo Biosciences Limited, priority 2020, dated 2026).

Legend:
TYK2 [1] = target: T1, TYK2 (Homo sapiens, UniProt P29597); test: HEK-Blue IFNα/β reporter assay (SEAP) for TYK2 pseudokinase inhibition; type: cell-based; settings: HEK-Blue IFNα/β cells, 1 ng/mL human recombinant IFNα
Method in brief: (§1)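 HEK-Blue cells carrying cytokine receptor and STAT3 or STAT1 SEAP reporter, pretreated 60 min with compound, then stimulated with 10 ng/mL IL-23 (22–24 h) or 1 ng/mL IFNα (16–18 h). SEAP read with QUANTI-Blue; IC50 by non-linear regression versus no-inhibitor and unstimulated controls.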

TYK2 [2] = target: T1, TYK2; test: HEK-Blue IL-23 reporter assay (SEAP) for TYK2 pseudokinase inhibition; type: cell-based; parameters: HEK-Blue™ IL-23 and IFNα/β cells with a stably-integrated cytokine receptor and STAT3 or STAT1; host or cells: HEK-Blue IL-23 / HEK-Blue IFNα/β cells (HEK293 background); settings: HEK-Blue IL-23 cells, 10 ng/mL human recombinant IL-23, SEAP reporter; read-out: IL23 IC50
Method in brief: as §1

T1 sequence (P29597 whole entry): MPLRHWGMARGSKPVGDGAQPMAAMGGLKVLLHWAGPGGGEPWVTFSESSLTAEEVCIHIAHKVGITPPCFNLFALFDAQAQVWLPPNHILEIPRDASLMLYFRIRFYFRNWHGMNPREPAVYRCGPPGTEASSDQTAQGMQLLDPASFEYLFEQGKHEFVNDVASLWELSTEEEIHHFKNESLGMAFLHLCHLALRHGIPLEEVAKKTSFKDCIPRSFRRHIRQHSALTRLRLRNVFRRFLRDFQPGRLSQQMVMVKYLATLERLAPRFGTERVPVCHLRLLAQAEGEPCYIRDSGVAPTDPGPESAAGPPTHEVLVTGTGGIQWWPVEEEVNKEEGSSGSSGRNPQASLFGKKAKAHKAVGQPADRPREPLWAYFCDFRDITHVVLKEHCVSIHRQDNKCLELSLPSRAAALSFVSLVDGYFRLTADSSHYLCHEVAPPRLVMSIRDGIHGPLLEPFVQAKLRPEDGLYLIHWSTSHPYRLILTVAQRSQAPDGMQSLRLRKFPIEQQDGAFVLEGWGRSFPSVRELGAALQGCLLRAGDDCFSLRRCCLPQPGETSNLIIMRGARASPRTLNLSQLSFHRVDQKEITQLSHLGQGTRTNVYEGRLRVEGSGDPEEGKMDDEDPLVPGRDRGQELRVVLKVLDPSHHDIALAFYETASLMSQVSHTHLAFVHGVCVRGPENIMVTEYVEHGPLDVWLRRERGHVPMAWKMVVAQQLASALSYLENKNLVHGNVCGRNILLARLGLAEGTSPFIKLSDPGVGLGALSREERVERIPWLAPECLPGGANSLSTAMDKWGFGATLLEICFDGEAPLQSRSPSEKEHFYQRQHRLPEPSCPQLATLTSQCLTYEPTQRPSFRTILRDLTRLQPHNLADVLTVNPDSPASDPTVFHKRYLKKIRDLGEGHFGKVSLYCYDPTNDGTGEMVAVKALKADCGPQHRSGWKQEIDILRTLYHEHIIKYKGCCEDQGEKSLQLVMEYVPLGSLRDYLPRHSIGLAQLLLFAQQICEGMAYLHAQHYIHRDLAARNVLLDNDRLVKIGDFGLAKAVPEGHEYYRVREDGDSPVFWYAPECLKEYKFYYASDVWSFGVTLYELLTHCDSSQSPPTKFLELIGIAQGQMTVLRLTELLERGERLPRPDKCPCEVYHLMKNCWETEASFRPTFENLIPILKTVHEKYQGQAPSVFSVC

Row | IC50 (TYK2 [1]) [µM] | IC50 (TYK2 [2]) [µM] | SMILES
1 | < 10 | < 10 | O=c1[nH]n(-c2ccccc2F)c2cc(Nc3ccc(F)cn3)ncc12 [Compound I-112, 1-(2-fluorophenyl)-6-((5-fluoropyridin-2-yl)amino)-1,2-dihydro-3H-pyrazolo[4,3-c]pyridin-3-one]
2 | < 10 | < 10 | Cc1cc(Nc2cc3c(cn2)c(=O)[nH]n3-c2cccc(F)c2F)nc(C)n1 [Compound I-113, 1-(2,3-difluorophenyl)-6-((2,6-dimethylpyrimidin-4-yl)amino)-1,2-dihydro-3H-pyrazolo[4,3-c]pyridin-3-one]
3 | < 10 | < 10 | Cc1cc(Nc2cc3c(cn2)c(=O)[nH]n3C2CCCC2)nc(C)n1 [Compound I-114, 1-cyclopentyl-6-((2,6-dimethylpyrimidin-4-yl)amino)-1,2-dihydro-3H-pyrazolo[4,3-c]pyridin-3-one]
4 | < 10 | < 10 | O=c1[nH]n(C2CCCC2)c2cc(Nc3ccc(F)cn3)ncc12 [Compound I-115, 1-cyclopentyl-6-((5-fluoropyridin-2-yl)amino)-1,2-dihydro-3H-pyrazolo[4,3-c]pyridin-3-one]
5 | 30 to 90 | < 10 | COc1cccc(-n2[nH]c(=O)c3c(N)nc(Nc4cc(C)nc(C)n4)cc32)c1 [Compound I-116, 4-amino-6-((2,6-dimethylpyrimidin-4-yl)amino)-1-(3-methoxyphenyl)-1,2-dihydro-3H-pyrazolo[4,3-c]pyridin-3-one]
6 | 10 to 30 | < 10 | Cc1cc(Nc2cc3c(cn2)c(=O)[nH]n3-c2cccc(CO)c2)nc(C)n1 [Compound I-117, 6-((2,6-dimethylpyrimidin-4-yl)amino)-1-(3-(hydroxymethyl)phenyl)-1,2-dihydro-3H-pyrazolo[4,3-c]pyridin-3-one]
7 | > 90 | < 10 | Cc1cc(Nc2cc3c(cn2)c(=O)[nH]n3-c2cccc(C(=O)NCc3ccccn3)c2)nc(C)n1 [Compound I-118, 3-(6-((2,6-dimethylpyrimidin-4-yl)amino)-3-oxo-2,3-dihydro-1H-pyrazolo[4,3-c]pyridin-1-yl)-N-(pyridin-2-ylmethyl)benzamide]
8 | < 10 | < 10 | Cc1cc(Nc2cc3c(cn2)c(=O)[nH]n3-c2ccc3cn(C)nc3c2)nc(C)n1 [Compound I-121, 6-((2,6-dimethylpyrimidin-4-yl)amino)-1-(2-methyl-2H-indazol-6-yl)-1,2-dihydro-3H-pyrazolo[4,3-c]pyridin-3-one]
9 | < 10 | < 10 | Cn1cc2ccc(-n3[nH]c(=O)c4cnc(Nc5ccc(F)cn5)cc43)cc2n1 [Compound I-122, 6-((5-fluoropyridin-2-yl)amino)-1-(2-methyl-2H-indazol-6-yl)-1,2-dihydro-3H-pyrazolo[4,3-c]pyridin-3-one]
10 | 30 to 90 | < 10 | CNC(=O)Nc1cc2c(cn1)c(=O)[nH]n2-c1ccccc1 [Compound I-125, 1-methyl-3-(3-oxo-1-phenyl-2,3-dihydro-1H-pyrazolo[4,3-c]pyridin-6-yl)urea]
11 | > 90 | < 10 | COC(=O)Nc1cc2c(cn1)c(=O)[nH]n2-c1ccccc1 [Compound I-126, methyl (3-oxo-1-phenyl-2,3-dihydro-1H-pyrazolo[4,3-c]pyridin-6-yl)carbamate]

Further lines, the compound ahead of its results:

Row | SMILES | IC50 (TYK2 [1]) [µM] | IC50 (TYK2 [2]) [µM]
12 | Cc1cc(Nc2cc3c(cn2)c(=O)[nH]n3-c2cc(Cl)cc(Cl)c2)nc(C)n1 [Compound I-96, 1-(3,5-dichlorophenyl)-6-((2,6-dimethylpyrimidin-4-yl)amino)-1,2-dihydro-3H-pyrazolo[4,3-c]pyridin-3-one] | > 90 | < 10
13 | O=C(Nc1cc2c(cn1)c(=O)[nH]n2-c1cc(Cl)cc(Cl)c1)C1CC1 [Compound I-98, N-(1-(3,5-dichlorophenyl)-3-oxo-2,3-dihydro-1H-pyrazolo[4,3-c]pyridin-6-yl)cyclopropanecarboxamide] | > 90 | < 10
14 | COc1c(F)cccc1-n1[nH]c(=O)c2cnc(Nc3cc(C)nc(C)n3)cc21 [Compound I-99, 6-((2,6-dimethylpyrimidin-4-yl)amino)-1-(3-fluoro-2-methoxyphenyl)-1,2-dihydro-3H-pyrazolo[4,3-c]pyridin-3-one] | 10 to 30 | < 10
15 | COc1c(F)cccc1-n1[nH]c(=O)c2cnc(Nc3ccc(F)cn3)cc21 [Compound I-100, 1-(3-fluoro-2-methoxyphenyl)-6-((5-fluoropyridin-2-yl)amino)-1,2-dihydro-3H-pyrazolo[4,3-c]pyridin-3-one] | > 90 | > 90
16 | COc1c(Cl)cccc1-n1[nH]c(=O)c2cnc(Nc3cc(C)nc(C)n3)cc21 [Compound I-101, 1-(3-chloro-2-methoxyphenyl)-6-((2,6-dimethylpyrimidin-4-yl)amino)-1,2-dihydro-3H-pyrazolo[4,3-c]pyridin-3-one] | > 90 | > 90
17 | COc1c(Cl)cccc1-n1[nH]c(=O)c2cnc(Nc3ccc(F)cn3)cc21 [Compound I-102, 1-(3-chloro-2-methoxyphenyl)-6-((5-fluoropyridin-2-yl)amino)-1,2-dihydro-3H-pyrazolo[4,3-c]pyridin-3-one] | > 90 | 10 to 30
18 | COc1c(-n2[nH]c(=O)c3cnc(Nc4cc(C)nc(C)n4)cc32)cccc1C(F)(F)F [Compound I-103, 6-((2,6-dimethylpyrimidin-4-yl)amino)-1-(2-methoxy-3-(trifluoromethyl)phenyl)-1,2-dihydro-3H-pyrazolo[4,3-c]pyridin-3-one] | > 90 | > 90
19 | COc1c(-n2[nH]c(=O)c3cnc(Nc4ccc(F)cn4)cc32)cccc1C(F)(F)F [Compound I-104, 6-((5-fluoropyridin-2-yl)amino)-1-(2-methoxy-3-(trifluoromethyl)phenyl)-1,2-dihydro-3H-pyrazolo[4,3-c]pyridin-3-one] | > 90 | > 90
20 | Cc1cc(Nc2cc3c(cn2)c(=O)[nH]n3-c2ccccc2C)nc(C)n1 [Compound I-105, 6-((2,6-dimethylpyrimidin-4-yl)amino)-1-(o-tolyl)-1,2-dihydro-3H-pyrazolo[4,3-c]pyridin-3-one] | < 10 | < 10
21 | Cc1ccccc1-n1[nH]c(=O)c2cnc(Nc3ccc(F)cn3)cc21 [Compound I-106, 6-((5-fluoropyridin-2-yl)amino)-1-(0-tolyl)-1,2-dihydro-3H-pyrazolo[4,3-c]pyridin-3-one] | 30 to 90 | < 10
22 | Cc1ccccc1-n1[nH]c(=O)c2cnc(NC(=O)C3CC3)cc21 [Compound I-107, N-(3-oxo-1-(o-tolyl)-2,3-dihydro-1H-pyrazolo[4,3-c]pyridin-6-yl)cyclopropanecarboxamide] | < 10 | < 10
23 | CCc1ccccc1-n1[nH]c(=O)c2cnc(Nc3cc(C)nc(C)n3)cc21 [Compound I-108, 6-((2,6-dimethylpyrimidin-4-yl)amino)-1-(2-ethylphenyl)-1,2-dihydro-3H-pyrazolo[4,3-c]pyridin-3-one] | 10 to 30 | < 10
24 | CCc1ccccc1-n1[nH]c(=O)c2cnc(Nc3ccc(F)cn3)cc21 [Compound I-109, 1-(2-ethylphenyl)-6-((5-fluoropyridin-2-yl)amino)-1,2-dihydro-3H-pyrazolo[4,3-c]pyridin-3-one] | > 90 | > 90
25 | CCc1ccccc1-n1[nH]c(=O)c2cnc(NC(=O)C3CC3)cc21 [Compound I-110, N-(1-(2-ethylphenyl)-3-oxo-2,3-dihydro-1H-pyrazolo[4,3-c]pyridin-6-yl)cyclopropanecarboxamide] | > 90 | > 90
26 | Cc1cc(Nc2cc3c(cn2)c(=O)[nH]n3-c2ccccc2F)nc(C)n1 [Compound I-111, 6-((2,6-dimethylpyrimidin-4-yl)amino)-1-(2-fluorophenyl)-1,2-dihydro-3H-pyrazolo[4,3-c]pyridin-3-one] | < 10 | < 10
